According to patent US20260315464A1, “COMPOSITIONS, METHODS, AND SYSTEMS FOR MODULATING SPLICING OF MSH3” (REVIR THERAPEUTICS, INC., priority 2023, published 2026):

System: MSH3
Test: QPCR assay for levels of MSH3 upon compound treatment in HEK293T or AD293 cells (fold-change of MSH3 transcript, EC50 of MSH3 downregulation; total MSH3 exons 13/14, exons 20/21; Table 8)
Type: cell-based
Conditions: Homo sapiens, fold-change of the MSH3 transcript, normalized to GAPDH; for mrna remaining at 1 µM: 1 μM compound; for mrna remaining at 10 µM: 10 μM compound
Procedure, shortened: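 MSH3 mRNA was quantified by TaqMan qPCR covering exons 13/14, exons 20/21, exon 13/PE14A and exon 20/PE21A, with GAPDH as reference. Cells used were HEK293T or AD293, treated with compound at 1 μM and […].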

Row | SMILES | mrna remaining at 1 µM | mrna remaining at 10 µM
1 | Cn1nc(Cl)c(-c2cnc3c(n2)C(=O)N(c2ccc(OC4CC(C)(C)NC5(CCC5)C4)nn2)C3)n1 (centres unmarked) [Compound 628, 3-(5-chloro-2-methyl-2H-1,2,3-triazol-4-yl)-6-(6-((6,6-dimethyl-5-azaspiro[3.5]nonan-8-yl)oxy)pyridazin-3-yl)-6,7-dihydro-5H-pyrrolo[3,4-b]pyrazin-5-one] | 101% | 20%
2 | CC(C)[C@H]1CN(c2ccc(N3Cc4c(F)cc(-c5cnn(C)n5)cc4C3=O)nn2)CCN1 [Compound 629, (S)-4-fluoro-2-(6-(3-isopropylpiperazin-1-yl)pyridazin-3-yl)-6-(2-methyl-2H-1,2,3-triazol-4-yl)isoindolin-1-one] | 74% | 62%
3 | Cn1ncc(-c2cc(F)c3c(c2)C(=O)N(c2ccc(N4CCN[C@@H](C(C)(C)C)C4)nn2)C3)n1 [Compound 630, (S)-2-(6-(3-(tert-butyl)piperazin-1-yl)pyridazin-3-yl)-4-fluoro-6-(2-methyl-2H-1,2,3-triazol-4-yl)isoindolin-1-one] | 106% | 72%
4 | Cn1ncc(-c2cc(F)c3c(c2)C(=O)N(c2ccc(O[C@H]4C[C@]5(C)CC[C@](C)(C4)N5)nn2)C3)n1 [Compound 631, 2-(6-(((1R,3s,5S)-1,5-dimethyl-8-azabicyclo[3.2.1]octan-3-yl)oxy)pyridazin-3-yl)-4-fluoro-6-(2-methyl-2H-1,2,3-triazol-4-yl)isoindolin-1-one] | 86% | 69%
5 | CN(c1ccc(N2Cc3c(F)cc(-c4cnn(CC(C)(C)O)c4)cc3C2=O)nn1)[C@H]1C[C@]2(C)CC[C@](C)(C1)N2 [Compound 632, 2-(6-(((1R,3s,5S)-1,5-dimethyl-8-azabicyclo[3.2.1]octan-3-yl)(methyl)amino)pyridazin-3-yl)-4-fluoro-6-(1-(2-hydroxy-2-methylpropyl)-1H-pyrazol-4-yl)isoindolin-1-one] | 72% | 57%
6 | CN(c1ccc(N2Cc3c(F)cc(-c4cnn(CC(C)(C)O)n4)cc3C2=O)nn1)C1CC(C)(C)NC(C)(C)C1 [Compound 633, 4-fluoro-6-(2-(2-hydroxy-2-methylpropyl)-2H-1,2,3-triazol-4-yl)-2-(6-(methyl(2,2,6,6-tetramethylpiperidin-4-yl)amino)pyridazin-3-yl)isoindolin-1-one] | 109% | 89%
7 | CN(c1ccc(N2Cc3c(F)cc(-c4cnn(CC(C)(C)O)n4)cc3C2=O)nn1)[C@H]1C[C@]2(C)CC[C@](C)(C1)N2 [Compound 634, 2-(6-(((1R,3s,5S)-1,5-dimethyl-8-azabicyclo[3.2.1]octan-3-yl)(methyl)amino)pyridazin-3-yl)-4-fluoro-6-(2-(2-hydroxy-2-methylpropyl)-2H-1,2,3-triazol-4-yl)isoindolin-1-one] | 63% | 76%
8 | CC(C)(O)Cn1ncc(-c2cc(F)c3c(c2)C(=O)N(c2ccc(OC4CC(C)(C)NC(C)(C)C4)nn2)C3)n1 [Compound 635, 4-fluoro-6-(2-(2-hydroxy-2-methylpropyl)-2H-1,2,3-triazol-4-yl)-2-(6-((2,2,6,6-tetramethylpiperidin-4-yl)oxy)pyridazin-3-yl)isoindolin-1-one] | 54% | 117%
9 | C[C@@H]1CN(c2ccc(N3Cc4c(F)cc(-c5nn(C)nc5Cl)cc4C3=O)nn2)C[C@H](C)N1 [Compound 636, 6-(5-chloro-2-methyl-2H-1,2,3-triazol-4-yl)-2-(6-((3S,5R)-3,5-dimethylpiperazin-1-yl)pyridazin-3-yl)-4-fluoroisoindolin-1-one] | 95% | 41%
10 | Cn1nc(Cl)c(-c2cc(F)c3c(c2)C(=O)N(c2ccc(N4CCN[C@@H](C(C)(C)C)C4)nn2)C3)n1 [Compound 637, (S)-2-(6-(3-(tert-butyl)piperazin-1-yl)pyridazin-3-yl)-6-(5-chloro-2-methyl-2H-1,2,3-triazol-4-yl)-4-fluoroisoindolin-1-one] | 150% | 31%
11 | CC(C)[C@@H]1CN(c2ccc(N3Cc4c(F)cc(-c5nn(C)nc5Cl)cc4C3=O)nn2)CCN1 [Compound 638, (R)-6-(5-chloro-2-methyl-2H-1,2,3-triazol-4-yl)-4-fluoro-2-(6-(3-isopropylpiperazin-1-yl)pyridazin-3-yl)isoindolin-1-one] | 112% | 22%
12 | Cc1nn(C)nc1-c1cc(F)c2c(c1)C(=O)N(c1ccc(N3CCNC(C)CC3)nn1)C2 (centres unmarked) [Compound 639, 6-(2,5-dimethyl-2H-1,2,3-triazol-4-yl)-4-fluoro-2-(6-(5-methyl-1,4-diazepan-1-yl)pyridazin-3-yl)isoindolin-1-one] | 118% | 55%
13 | Cc1nn(C)nc1-c1cc(F)c2c(c1)C(=O)N(c1ccc(N3CCN[C@H](C(C)C)C3)nn1)C2 [Compound 640, (R)-6-(2,5-dimethyl-2H-1,2,3-triazol-4-yl)-4-fluoro-2-(6-(3-isopropylpiperazin-1-yl)pyridazin-3-yl)isoindolin-1-one] | 99% | 25%
14 | Cc1nn(C)nc1-c1cc(F)c2c(c1)C(=O)N(c1ccc(N3C[C@@H](C)N[C@@H](C)C3)nn1)C2 [Compound 641, 6-(2,5-dimethyl-2H-1,2,3-triazol-4-yl)-2-(6-((3S,5R)-3,5-dimethylpiperazin-1-yl)pyridazin-3-yl)-4-fluoroisoindolin-1-one] | 96% | 34%
15 | Cn1nc(Cl)c(-c2cc(F)c3c(c2)C(=O)N(c2ccc(N4CCNC(C)(C)C4)nn2)C3)n1 [Compound 642, 6-(5-chloro-2-methyl-2H-1,2,3-triazol-4-yl)-2-(6-(3,3-dimethylpiperazin-1-yl)pyridazin-3-yl)-4-fluoroisoindolin-1-one] | 91% | 21%
16 | Cc1nn(C)nc1-c1cc(F)c2c(c1)C(=O)N(c1ccc(N3CCNC(C)(C)C3)nn1)C2 [Compound 643, 6-(2,5-dimethyl-2H-1,2,3-triazol-4-yl)-2-(6-(3,3-dimethylpiperazin-1-yl)pyridazin-3-yl)-4-fluoroisoindolin-1-one] | 109% | 72%
17 | Cn1nc(Cl)c(-c2cc(F)c3c(c2)C(=O)N(c2ccc(N4CC5(CCNC5)C4)nn2)C3)n1 [Compound 644, 2-(6-(2,6-diazaspiro[3.4]octan-2-yl)pyridazin-3-yl)-6-(5-chloro-2-methyl-2H-1,2,3-triazol-4-yl)-4-fluoroisoindolin-1-one] | 87% | 97%
18 | Cn1nc(Cl)c(-c2cc(F)c3c(c2)C(=O)N(c2ccc(N4CC5CCC(C4)NC5)nn2)C3)n1 (centres unmarked) [Compound 645] | 87% | 104%
19 | Cc1nn(C)nc1-c1cc(F)c2c(c1)C(=O)N(c1ccc(N3CCC4(CCNC4)C3)nn1)C2 (centres unmarked) [Compound 646, 2-(6-(2,7-diazaspiro[4.4]nonan-2-yl)pyridazin-3-yl)-6-(2,5-dimethyl-2H-1,2,3-triazol-4-yl)-4-fluoroisoindolin-1-one] | 115% | 76%
